Laboratory results: patent US9730938B2, “Bruton's tyrosine kinase inhibitor combinations and uses thereof” (Pharmacyclics LLC, priority 2014, dated 2017)

Legend:
Assay in all cases: Combined drug treatment cell viability, CellTiter-Glo assay (Example 1)
Assay type in all cases: cell-based
Conditions in all cases: 3 days
SU-DHL-2 = system: SU-DHL-2
Protocol: (§1) DLBCL cells at either 1×10^4 cells or 2×10^4 cells were plated onto each well of a 96-W plate (Table 1).
(§2) The stock solutions for the IDH1 inhibitor AGI5198 and the MALT1 inhibitor MI-2 were each prepared at 50 mM concentration.
(§3) The 96-W plate was then incubated for 3 days. Cell viability was examined using a CellTiter-Glo assay.
(§4) A 40 μL of CellTiter-Glo reagent was added directly into each well of the 96-W plate. The plate was then shaken on a Shaker (Labsystem Wellmix) at speed 5 for 10-20 min at room temperature. Next, 100 μL of the mixed medium was transferred to a white, non-transparent, flat bottom 96-W plate for assaying. A Flexstation 3 luminometer was used for detecting and measuring the luminescent signals. Measurements were taken at room temperature.
(§5) In general, the combination is described as synergistic (CI<1), additive (CI=1), or antagonistic (CI>1). Synergism is further separated into very strong synergism (<0.1), strong synergism (0.1-0.3), synergism (0.3-0.7), moderate synergism (0.7-0.85), and slight synergism (0.85-0.9).

U2932 = system: U2932
Protocol: as §1, §2, §3, §4, §5

TMD8 = system: TMD8
Protocol: as §1, §2, §3, §4, §5

OCI-LY-3 = system: OCI-LY-3
Protocol: as §1, §2, §3, §4, §5

OCI-LY-10 = system: OCI-LY-10
Protocol: as §1, §2, §3, §4, §5

[1] = ibrutinib 0 nM, IDH1i 10 uM / MALT1i 200 nM alone
[2] = ibrutinib 0.0256 nM, IDH1i 10 uM / MALT1i 200 nM / medium alone
[3] = ibrutinib 0.128 nM, IDH1i 10 uM / MALT1i 200 nM / medium alone
[4] = ibrutinib 0.64 nM, IDH1i 10 uM / MALT1i 200 nM / medium alone
[5] = ibrutinib 3.2 nM, IDH1i 10 uM / MALT1i 200 nM / medium alone
[6] = ibrutinib 16 nM, IDH1i 10 uM / MALT1i 200 nM / medium alone
[7] = ibrutinib 80 nM, IDH1i 10 uM / MALT1i 200 nM / medium alone
[8] = ibrutinib 400 nM, IDH1i 10 uM / MALT1i 200 nM / medium alone
[9] = ibrutinib 2000 nM, IDH1i 10 uM / MALT1i 200 nM / medium alone
[10] = ibrutinib 10000 nM, IDH1i 10 uM / MALT1i 200 nM / medium alone
[11] = ibrutinib 0 nM, IDH1i 10 uM / MALT1i 5 uM alone
[12] = ibrutinib 0.0256 nM, IDH1i 10 uM / MALT1i 5 uM / medium alone
[13] = ibrutinib 0.128 nM, IDH1i 10 uM / MALT1i 5 uM / medium alone
[14] = ibrutinib 0.64 nM, IDH1i 10 uM / MALT1i 5 uM / medium alone
[15] = ibrutinib 3.2 nM, IDH1i 10 uM / MALT1i 5 uM / medium alone
[16] = ibrutinib 16 nM, IDH1i 10 uM / MALT1i 5 uM / medium alone
[17] = ibrutinib 80 nM, IDH1i 10 uM / MALT1i 5 uM / medium alone
[18] = ibrutinib 400 nM, IDH1i 10 uM / MALT1i 5 uM / medium alone
[19] = ibrutinib 2000 nM, IDH1i 10 uM / MALT1i 5 uM / medium alone
[20] = ibrutinib 10000 nM, IDH1i 10 uM / MALT1i 5 uM / medium alone

## Cc1ccccc1C(C(=O)NC1CCCCC1)N(C(=O)Cn1ccnc1C)c1cccc(F)c1 (centres unmarked) [AGI5198]
SU-DHL-2; [1]
  luminescence (CellTiter-Glo): 124126.7
SU-DHL-2; [2]
  luminescence (CellTiter-Glo): 130906.9
SU-DHL-2; [3]
  luminescence (CellTiter-Glo): 145229.1
SU-DHL-2; [4]
  luminescence (CellTiter-Glo): 142615.3
SU-DHL-2; [5]
  luminescence (CellTiter-Glo): 156751.0
SU-DHL-2; [6]
  luminescence (CellTiter-Glo): 152240.5
SU-DHL-2; [7]
  luminescence (CellTiter-Glo): 152613.5
SU-DHL-2; [8]
  luminescence (CellTiter-Glo): 145121.4
SU-DHL-2; [9]
  luminescence (CellTiter-Glo): 149634.6
SU-DHL-2; [10]
  luminescence (CellTiter-Glo): 50666.3
U2932; [1]
  luminescence (CellTiter-Glo): 52209.68
U2932; [2]
  luminescence (CellTiter-Glo): 47490.41
U2932; [3]
  luminescence (CellTiter-Glo): 48958.10
U2932; [4]
  luminescence (CellTiter-Glo): 45155.81
U2932; [5]
  luminescence (CellTiter-Glo): 46620.86
U2932; [6]
  luminescence (CellTiter-Glo): 43920.00
U2932; [7]
  luminescence (CellTiter-Glo): 43730.28
U2932; [8]
  luminescence (CellTiter-Glo): 45769.76
U2932; [9]
  luminescence (CellTiter-Glo): 43047.82
U2932; [10]
  luminescence (CellTiter-Glo): 31970.32
TMD8; ibrutinib 0 nM, IDH1i 10 uM / MALT1i 100 nM alone
  luminescence (CellTiter-Glo): 75993.70
TMD8; ibrutinib 0.0256 nM, IDH1i 10 uM / MALT1i 100 nM / medium alone
  luminescence (CellTiter-Glo): 25500.80
TMD8; ibrutinib 0.128 nM, IDH1i 10 uM / MALT1i 100 nM / medium alone
  luminescence (CellTiter-Glo): 25788.09
TMD8; ibrutinib 0.64 nM, IDH1i 10 uM / MALT1i 100 nM / medium alone
  luminescence (CellTiter-Glo): 22928.31
TMD8; ibrutinib 3.2 nM, IDH1i 10 uM / MALT1i 100 nM / medium alone
  luminescence (CellTiter-Glo): 23004.75
TMD8; ibrutinib 16 nM, IDH1i 10 uM / MALT1i 100 nM / medium alone
  luminescence (CellTiter-Glo): 22519.77
TMD8; ibrutinib 80 nM, IDH1i 10 uM / MALT1i 100 nM / medium alone
  luminescence (CellTiter-Glo): 22451.24
TMD8; ibrutinib 400 nM, IDH1i 10 uM / MALT1i 100 nM / medium alone
  luminescence (CellTiter-Glo): 19936.75
TMD8; ibrutinib 2000 nM, IDH1i 10 uM / MALT1i 100 nM / medium alone
  luminescence (CellTiter-Glo): 19649.45
TMD8; ibrutinib 10000 nM, IDH1i 10 uM / MALT1i 100 nM / medium alone
  luminescence (CellTiter-Glo): 9604.64
OCI-LY-3; [11]
  luminescence (CellTiter-Glo): 61813.89
OCI-LY-3; [12]
  luminescence (CellTiter-Glo): 60845.63
OCI-LY-3; [13]
  luminescence (CellTiter-Glo): 58171.75
OCI-LY-3; [14]
  luminescence (CellTiter-Glo): 64267.34
OCI-LY-3; [15]
  luminescence (CellTiter-Glo): 61774.53
OCI-LY-3; [16]
  luminescence (CellTiter-Glo): 63970.82
OCI-LY-3; [17]
  luminescence (CellTiter-Glo): 65372.05
OCI-LY-3; [18]
  luminescence (CellTiter-Glo): 68413.28
OCI-LY-3; [19]
  luminescence (CellTiter-Glo): 66282.58
OCI-LY-3; [20]
  luminescence (CellTiter-Glo): 58163.88
OCI-LY-10; [11]
  luminescence (CellTiter-Glo): 54469.95
OCI-LY-10; [12]
  luminescence (CellTiter-Glo): 60402.37
OCI-LY-10; [13]
  luminescence (CellTiter-Glo): 45182.13
OCI-LY-10; [14]
  luminescence (CellTiter-Glo): 49163.38
OCI-LY-10; [15]
  luminescence (CellTiter-Glo): 37017.16
OCI-LY-10; [16]
  luminescence (CellTiter-Glo): 22951.32
OCI-LY-10; [17]
  luminescence (CellTiter-Glo): 21796.92
OCI-LY-10; [18]
  luminescence (CellTiter-Glo): 22543.73
OCI-LY-10; [19]
  luminescence (CellTiter-Glo): 22738.32
OCI-LY-10; [20]
  luminescence (CellTiter-Glo): 21999.40
